Values of other authors, collected in patent US20120015026A1, “PHARMACEUTICAL COMPOSITION CONTAINING A DRUG AND SIRNA” (priority 2009, published 2012).

Columns and labels:
[1] = organic solvents such as ethanol, ethylacetate, dichloromethane

## C/C(=C\c1csc(C)n1)[C@@H]1C[C@@H]2O[C@]2(C)CCC[C@H](C)[C@H](O)[C@@H](C)C(=O)C(C)(C)[C@@H](O)CC(=O)O1 [EPO906, epothilone B]
other
  solubility in water: < 0.1 µg/mL
[1]
  solubility in organic solvents: highly soluble
